# Measured values as given in PubChem BioAssay (NCI).
#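 Values below derive from 48-hour exposures of cells grown in 96-well plates, with endpoints linearly interpolated between the two concentrations bracketing the appropriate inhibition level. The concentration for full growth arrest is given as TGI.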
# Key:
# Experiment in all cases: NCI anticancer screen, dose series, 48 h
# ACHN renal = system: ACHN renal
# SNB-75 CNS = system: SNB-75 CNS
# NCI/ADR-RES ovarian = system: NCI/ADR-RES ovarian
# NCI-H460 lung = system: NCI-H460 lung
# HCT-15 colon = system: HCT-15 colon
# 786-0 renal = system: 786-0 renal
# T-47D breast = system: T-47D breast
# DU-145 prostate = system: DU-145 prostate
# CAKI-1 renal = system: CAKI-1 renal
# SF-295 CNS = system: SF-295 CNS
smiles,measurement,setting,value
C(=C\c1ccccc1)/C=N/c1nc2cc3sc(/N=C/C=C/c4ccccc4)nc3cc2s1,TGI,ACHN renal,> 100 µM
same,TGI,SNB-75 CNS,> 100 µM
same,TGI,NCI/ADR-RES ovarian,> 100 µM
same,TGI,NCI-H460 lung,> 100 µM
same,TGI,HCT-15 colon,> 100 µM
same,TGI,786-0 renal,> 100 µM
same,TGI,T-47D breast,> 100 µM
same,TGI,DU-145 prostate,> 100 µM
same,TGI,CAKI-1 renal,> 100 µM
same,TGI,SF-295 CNS,> 100 µM
O=S1(=O)c2ccccc2C(=NO)c2ccccc21,TGI,ACHN renal,> 100 µM
same,TGI,SNB-75 CNS,> 100 µM
same,TGI,NCI/ADR-RES ovarian,> 100 µM
same,TGI,NCI-H460 lung,> 100 µM
same,TGI,HCT-15 colon,> 100 µM
same,TGI,786-0 renal,> 100 µM
same,TGI,T-47D breast,> 100 µM
same,TGI,DU-145 prostate,> 100 µM
same,TGI,CAKI-1 renal,> 100 µM
same,TGI,SF-295 CNS,> 100 µM
COc1cc(/C=C2\N=C(c3ccccc3)N(c3nc4c(OC)ccc(OC)c4s3)C2=O)cc(OC)c1OC,TGI,ACHN renal,> 100 µM
same,TGI,SNB-75 CNS,> 100 µM
same,TGI,NCI/ADR-RES ovarian,> 100 µM
same,TGI,NCI-H460 lung,> 100 µM
same,TGI,HCT-15 colon,> 100 µM
same,TGI,786-0 renal,> 100 µM
same,TGI,T-47D breast,> 100 µM
same,TGI,DU-145 prostate,> 100 µM
same,TGI,CAKI-1 renal,> 100 µM
same,TGI,SF-295 CNS,> 100 µM
CCOC(=O)/C=C(\C(=O)OCC)n1ccc(N)nc1=O,TGI,ACHN renal,> 100 µM
same,TGI,SNB-75 CNS,> 100 µM
same,TGI,NCI/ADR-RES ovarian,> 100 µM
same,TGI,NCI-H460 lung,> 100 µM
same,TGI,HCT-15 colon,> 100 µM
same,TGI,786-0 renal,> 100 µM
same,TGI,T-47D breast,> 100 µM
same,TGI,DU-145 prostate,> 100 µM
same,TGI,CAKI-1 renal,> 100 µM
same,TGI,SF-295 CNS,> 100 µM
O=c1[nH]c(=O)n(Cc2ccccc2CO)cc1Sc1ccccc1,TGI,ACHN renal,96.4 µM
same,TGI,SNB-75 CNS,> 100 µM
same,TGI,NCI/ADR-RES ovarian,81 µM
same,TGI,NCI-H460 lung,> 100 µM
same,TGI,HCT-15 colon,53.5 µM
same,TGI,786-0 renal,> 100 µM
same,TGI,T-47D breast,> 100 µM
same,TGI,DU-145 prostate,> 100 µM
same,TGI,CAKI-1 renal,27.2 µM
same,TGI,SF-295 CNS,> 100 µM
NC(=S)Nc1[nH]c(=S)nc2c1SC1=N/C(=C\c3ccco3)C(=O)N12,TGI,ACHN renal,> 100 µM
same,TGI,SNB-75 CNS,> 100 µM
same,TGI,NCI/ADR-RES ovarian,> 100 µM
same,TGI,NCI-H460 lung,> 100 µM
same,TGI,HCT-15 colon,> 100 µM
same,TGI,786-0 renal,> 100 µM
same,TGI,T-47D breast,> 100 µM
same,TGI,DU-145 prostate,> 100 µM
same,TGI,CAKI-1 renal,> 100 µM
same,TGI,SF-295 CNS,> 100 µM
O=c1cc(N2CCCC2)[nH]c(=O)n1-c1cccc(C(F)(F)F)c1,TGI,ACHN renal,> 100 µM
same,TGI,SNB-75 CNS,> 100 µM
same,TGI,NCI/ADR-RES ovarian,> 100 µM
same,TGI,NCI-H460 lung,> 100 µM
same,TGI,HCT-15 colon,> 100 µM
same,TGI,786-0 renal,> 100 µM
same,TGI,T-47D breast,> 100 µM
same,TGI,DU-145 prostate,> 100 µM
same,TGI,CAKI-1 renal,> 100 µM
same,TGI,SF-295 CNS,> 100 µM
Oc1ccc(SCc2cc(O)c(O)c(O)c2)cc1,TGI,ACHN renal,> 100 µM
same,TGI,SNB-75 CNS,> 100 µM
same,TGI,NCI/ADR-RES ovarian,58.5 µM
same,TGI,NCI-H460 lung,36.7 µM
same,TGI,HCT-15 colon,> 100 µM
same,TGI,786-0 renal,> 100 µM
same,TGI,T-47D breast,> 100 µM
same,TGI,DU-145 prostate,> 100 µM
same,TGI,CAKI-1 renal,> 100 µM
same,TGI,SF-295 CNS,29.8 µM
NC(=O)c1ccc2c(c1)S(=O)(=O)c1ccccc1C2=O,TGI,ACHN renal,> 100 µM
same,TGI,SNB-75 CNS,> 100 µM
same,TGI,NCI/ADR-RES ovarian,> 100 µM
same,TGI,NCI-H460 lung,> 100 µM
same,TGI,HCT-15 colon,> 100 µM
same,TGI,786-0 renal,> 100 µM
same,TGI,T-47D breast,> 100 µM
same,TGI,DU-145 prostate,> 100 µM
same,TGI,CAKI-1 renal,> 100 µM
same,TGI,SF-295 CNS,> 100 µM
COc1cccc(N(CN2CC=CC2=O)C(C)=O)c1,TGI,ACHN renal,> 100 µM
same,TGI,SNB-75 CNS,> 100 µM
same,TGI,NCI/ADR-RES ovarian,> 100 µM
same,TGI,NCI-H460 lung,> 100 µM
same,TGI,HCT-15 colon,> 100 µM
same,TGI,786-0 renal,> 100 µM
same,TGI,T-47D breast,> 100 µM
same,TGI,DU-145 prostate,> 100 µM
same,TGI,CAKI-1 renal,> 100 µM
same,TGI,SF-295 CNS,> 100 µM
CNC(=O)c1cc(NC(=O)N(CCC#N)CCN(C(=O)N[C@@H](Cc2ccccc2)C(=O)N[C@@H](CC(C)C)C(=O)NC)c2ccccc2)ccc1OC,TGI,ACHN renal,> 100 µM
same,TGI,SNB-75 CNS,> 100 µM
same,TGI,NCI/ADR-RES ovarian,> 100 µM
same,TGI,NCI-H460 lung,50.9 µM
same,TGI,HCT-15 colon,> 100 µM
same,TGI,786-0 renal,> 100 µM
same,TGI,T-47D breast,> 85.9 µM
same,TGI,DU-145 prostate,> 100 µM
same,TGI,CAKI-1 renal,> 100 µM
same,TGI,SF-295 CNS,> 100 µM
O=C1C=C(Br)c2c(Br)sc(Br)c21,TGI,ACHN renal,15.3 µM
same,TGI,SNB-75 CNS,39.7 µM
same,TGI,NCI/ADR-RES ovarian,> 53.8 µM
same,TGI,NCI-H460 lung,> 61.8 µM
same,TGI,HCT-15 colon,20.5 µM
same,TGI,786-0 renal,> 19.6 µM
same,TGI,T-47D breast,31.4 µM
same,TGI,DU-145 prostate,29 µM
same,TGI,CAKI-1 renal,26.6 µM
same,TGI,SF-295 CNS,99.4 µM
O=C(CCCCCCCCC(=O)N1C(=O)CC(=O)N(c2cccc(Cl)c2)C1=S)N1C(=O)CC(=O)N(c2cccc(Cl)c2)C1=S,TGI,ACHN renal,> 100 µM
same,TGI,SNB-75 CNS,> 100 µM
same,TGI,NCI/ADR-RES ovarian,96.9 µM
same,TGI,NCI-H460 lung,> 100 µM
same,TGI,HCT-15 colon,> 100 µM
same,TGI,786-0 renal,> 100 µM
same,TGI,T-47D breast,> 100 µM
same,TGI,DU-145 prostate,> 100 µM
same,TGI,CAKI-1 renal,> 100 µM
same,TGI,SF-295 CNS,> 100 µM
O=[N+]([O-])c1ccc(N=Nc2c(O)c(S(=O)(=O)O)cc3cc(S(=O)(=O)O)ccc23)cc1,TGI,ACHN renal,> 100 µM
same,TGI,SNB-75 CNS,> 100 µM
same,TGI,NCI/ADR-RES ovarian,> 100 µM
same,TGI,NCI-H460 lung,> 100 µM
same,TGI,HCT-15 colon,> 100 µM
same,TGI,786-0 renal,> 100 µM
same,TGI,T-47D breast,> 100 µM
same,TGI,DU-145 prostate,> 100 µM
same,TGI,CAKI-1 renal,> 100 µM
same,TGI,SF-295 CNS,> 100 µM
C=CCNC(=O)NC1=CSC2=NC(=O)C3(NN12)c1ccccc1-c1ccccc13,TGI,ACHN renal,> 10 µM
same,TGI,SNB-75 CNS,> 10 µM
same,TGI,NCI/ADR-RES ovarian,> 10 µM
same,TGI,NCI-H460 lung,> 10 µM
same,TGI,HCT-15 colon,> 10 µM
same,TGI,786-0 renal,> 10 µM
same,TGI,T-47D breast,> 10 µM
same,TGI,DU-145 prostate,> 10 µM
same,TGI,CAKI-1 renal,> 10 µM
same,TGI,SF-295 CNS,> 10 µM
CC(CO)C1C[C@H](O)[C@@]2(C)CC(=O)C=C(CO)[C@@H]2C1 (stereo not given in full),TGI,ACHN renal,> 100 µM
same,TGI,SNB-75 CNS,> 100 µM
same,TGI,NCI/ADR-RES ovarian,> 100 µM
same,TGI,NCI-H460 lung,> 100 µM
same,TGI,HCT-15 colon,> 100 µM
same,TGI,786-0 renal,> 100 µM
same,TGI,T-47D breast,> 100 µM
same,TGI,DU-145 prostate,> 100 µM
same,TGI,CAKI-1 renal,> 100 µM
same,TGI,SF-295 CNS,> 100 µM
Cc1sc(/N=C/c2c[nH]c3ccccc23)c(C#N)c1C,TGI,ACHN renal,> 100 µM
same,TGI,SNB-75 CNS,> 100 µM
same,TGI,NCI/ADR-RES ovarian,> 100 µM
same,TGI,NCI-H460 lung,> 100 µM
same,TGI,HCT-15 colon,> 100 µM
same,TGI,786-0 renal,> 100 µM
same,TGI,T-47D breast,> 100 µM
same,TGI,DU-145 prostate,> 100 µM
same,TGI,CAKI-1 renal,> 100 µM
same,TGI,SF-295 CNS,> 100 µM
COC(OC)C1OC(CO)C(n2ccc(N)nc2=O)C1O (stereo not given),TGI,ACHN renal,> 100 µM
same,TGI,SNB-75 CNS,> 100 µM
same,TGI,NCI/ADR-RES ovarian,> 100 µM
same,TGI,NCI-H460 lung,> 100 µM
same,TGI,HCT-15 colon,> 100 µM
same,TGI,786-0 renal,> 100 µM
same,TGI,T-47D breast,> 100 µM
same,TGI,DU-145 prostate,> 100 µM
same,TGI,CAKI-1 renal,> 100 µM
same,TGI,SF-295 CNS,> 100 µM
